Measurements reported in EP0661271B1, “AZEPINE DERIVATIVES, PRODUCTION THEREOF, AND USE THEREOF AS SIGMA-RECEPTOR LIGANDS” (Asahi Kasei Kogyo Kabushiki Kaisha, priority 1992, dated 1994).

Assays:
[1] = test system: apomorphine induced climbing; assay: Suppressive activity on apomorphine induced climbing in mice; format: in vivo; conditions: 30 minutes before apomorphine 2 mg/kg s.c., ICR mice; for Suppression rate (mg/kg, p.o): apomorphine single administered group = 100 %
Method: Administering dopamine agonist, apomorphine in mouse resulted various abnormal movings, and especially, a climbing the cage has been known to be correlated with human schizophrenia.
Compounds of the present invention were administered orally or intraperitoneally in ICR mice, male (Charles River Corp.), and after 30 minutes apomorphine 2 mg/kg was administered subcutaneously. Climbing behaviors of 3 minutes after 20-23 minutes of apomorphine administration were observed. Climbing behavior was observed by entering the mice in stainless steel made wire netting cage and measuring a time remaining above the upper part of half part of the cage at observing. A climbing time of apomorphine single administered group is set as 100 % and shortened time by administering the drug is shown in suppression rate.

[2] = molecular target: σ-receptor; assay: Binding activity for σ-receptor, [3H]DTG displacement in rat brain membrane preparation; parameters: species or system Sprague-Dowley rat; conditions: for Ki: rat whole brain (except cerebella) membrane, [3H]DTG 3 nM, 25°C 60 minutes, compounds tested as hydrochloride, read-out: Sigma [^3H] DTG Ki

Compound	Ki [2] [nM]	also measured
CN(C)CCCN1c2ccccc2Sc2ccc(Cl)cc21 [Chlorpromazine, reference compound]		Suppression (mg/kg, i.p.) ([1]; 1 mg/kg i.p.): 40 % (1)
Cc1ccccc1NC(=N)Nc1ccccc1C [DTG, 1,3-di(2-tolyl) guanidine, reference compound]		Kd ([2]; radioligand constant used to calculate Ki, read-out: Kd, affinity of radioactive ligand for receptor): 10.6 nM
CC1(C)C2CC[C@]1(C)CN(CCC13CC4CC(CC(C4)C1)C3)C2 [Example 1, (1S)-3-[2-(1-adamantyl)ethyl]-1,8,8-trimethyl-3-azabicyclo [3.2.1] octane]	0.26	Suppression rate (mg/kg, p.o) ([1]; 30 mg/kg p.o.): 37 % (30)
CC1(C)C2CC[C@]1(C)CN(CCC1CCCC1)C2 [Example 3, (1S)-3-(2-cyclopentylethyl)-1,8,8-trimethyl-3-azabicyclo[3.2.1] octane]	0.53	
CC1(C)C2CC[C@]1(C)CN(CCC1CCCCC1)C2 [Example 4, (1S)-3-(2-cyclohexylethyl)-1,8,8-trimethyl-3-azabicyclo[3.2.1] octane]	0.28	
CC1(C)C2CC[C@@]1(C)CN(CCC1CCCCC1)C2 [Example 6, (1R)-3-(2-cyclohexylethyl)-1,8,8-trimethyl-3-azabicyclo[3.2.1] octane]	0.16	
CC1(C)C2CC[C@]1(C)CN(CCC1CCCCCC1)C2 [Example 7, (1S)-3-(2-cycloheptylethyl)-1,8,8-trimethyl-3-azabicyclo[3.2.1] octane]	0.57	
CC1(C)C2CC[C@]1(C)CN(CCC1CCCCCCC1)C2 [Example 8, (1S)-3-(2-cyclooctylethyl)-1,8,8-trimethyl-3-azabicyclo[3,2,1] octane]	0.5	
CC1(C)C2CC[C@]1(C)CN(CCCCC1CCCCC1)C2 [Example 9, (1S)-3-(4-cyclohexyl-1-butyl)-1,8,8-trimethyl-3-azabicyclo[3.2.1] octane]	3.72	
CC1(C)C2CC[C@]1(C)CN(CCCC1CCCCC1)C2 [Example 10, (1S)-3-(3-cyclohexylpropyl)-1,8,8-trimethyl-3-azabicyclo[3.2.1] octane]	0.92	
CC1(C)C2CC[C@]1(C)CN(CC1CCCCC1)C2 [Example 11, (1S)-3-cyclohexylmethyl-1,8,8-trimethyl-3-azabicyclo[3.2.1] octane]	3.63	
CC1(C)C2CC[C@@]1(C)CN(CC1CCCCC1)C2 [Example 12, (1R)-3-cyclohexylmethyl-1,8,8-trimethyl-3-azabicyclo[3.2.1] octane]	2.53	
CC1(C)C2CC[C@]1(C)CN(C1CCCCC1)C2 [Example 13, (1S)-3-cyclohexyl-1,8,8-trimethyl-3-azabicyclo[3.2.1] octane]	6.37	
CC1(C)C2CC[C@]1(C)CN(CCC1C3CC4CC(C3)C(c3ccccc3)C1C4)C2 (stereo partly drawn) [Example 28, (1S)-3-[2-(4-phenyl-2-adamantyl)ethyl]-1,8,8-trimethyl-3-azabicyclo [3.2.1] octane]		Suppression rate (mg/kg, p.o) ([1]; 30 mg/kg p.o.): 74 % (30)
CC1(C)C2CC[C@@]1(C)CN(CCc1ccccn1)C2 [Example 47, (1R)-3-[2-(2-pyridyl)ethyl]-1,8,8-trimethyl-3-azabicyclo [3.2.1] octane]	16.1	
CC1(C)[C@@H]2CC[C@@]1(C)CN(CCc1ccncc1)C2 [Example 48, (1R)-3-[2-(4-pyridyl) ] ethyl-1,8,8-trimethyl-3-azabicyclo [3.2.1] octane]	15.1	
CC1(C)C2CC[C@]1(C)CN(CCc1ccccn1)C2 [Example 51, (1S)-3-[2-(2-pyridyl)ethyl]-1,8,8-trimethyl-3-azabicyclo [3.2.1] octane]	31.8	
CC1(C)C2CC[C@]1(C)CN(CCc1cccnc1)C2 [Example 52, (1S)-3-[2-(3-pyridyl)ethyl]-1,8,8-trimethyl-3-azabicyclo [3.2.1] octane]	79.5	
CC1(C)C2CC[C@]1(C)CN(CCc1ccncc1)C2 [Example 53, (1S)-3-[2-(4-pyridyl)ethyl]-1,8,8-trimethyl-3-azabicyclo [3.2.1] octane]	21.5	
CC1(C)C2CC[C@]1(C)CN(CCc1cccs1)C2 [Example 55, (1S)-3-[2-(2-thienyl)ethyl]-1,8,8-trimethyl-3-azabicyclo [3.2.1] octane]	7.04	
(1S)-3-[2-(1-norbornyl)ethyl]-1,8,8-trimethyl-3-azabicyclo [3,2,1] octane [Example 2]	0.39	

Continued, in another order:

Ki [2] [nM]	Compound	also measured
0.32	CC1(C)C2CC[C@@]1(C)CN(CCC13CC4CC(CC(C4)C1)C3)C2 [Example 14, (1R)-3-[2-(1-adamantyl)ethyl]-1,8,8-trimethyl-3-azabicyclo[3.2.1] octane]	
0.32	CC1(C)C2CC[C@]1(C)CN(CCC1C3CC4CC(C3)CC1C4)C2 (stereo partly drawn) [Example 15, (1S)-3-[2-(2-adamantyl)ethyl]-1,8,8-trimethyl-3-azabicyclo[3.2.1] octane]	Suppression rate (mg/kg, p.o) ([1]; 10 mg/kg p.o.): 78 % (10)
0.41	CC1(C)C2CC[C@@]1(C)CN(CCC1C3CC4CC(C3)CC1C4)C2 (stereo partly drawn) [Example 16, (1R)-3-[2-(2-adamantyl)ethyl]-1,8,8-trimethyl-3-azabicyclo [3.2.1] octane]	Suppression rate (mg/kg, p.o) ([1]; 30 mg/kg p.o.): 79 % (30)
2.23	CC1CCC(CCN2CC3CC[C@](C)(C2)C3(C)C)CC1 (stereo partly drawn) [Example 18, (1S)-3-[2-(4-methylcyclohexyl)ethyl]-1,8,8-trimethyl-3-azabicyclo [3.2.1] octane]	
0.87	CC12CC3CC(C1)CC(CCN1CC4CC[C@](C)(C1)C4(C)C)(C3)C2 [Example 19, (1S)-3-[2-(3-methyl-1-adamantyl)ethyl]-1,8,8-trimethyl-3-azabicyclo [3.2.1] octane]	
4.16	CC1(C)[C@H]2CC[C@]1(C)CN(CC13CC4CC(CC1C4)C3)C2 [Example 20, (1S)-3-(3-noradamantylmethyl)-1,8,8-trimethyl-3-azabicyclo[3.2.1] octane]	
0.88	CC1(C)C2CC[C@]1(C)CN(CCC1C3CCCC1CCC3)C2 (stereo partly drawn) [Example 21, (1S)-3-[2-(bicyclo [3.3.1]nonan-9-yl)-1-ethyl]-1,8,8-trimethyl-3-azabicyclo [3.2.1] octane]	Suppression rate (mg/kg, p.o) ([1]; 30 mg/kg p.o.): 54 % (30)
0.44	CC1(C)C2CC[C@]1(C)CN(CCC1C3CC4CC1CC(O)(C4)C3)C2 (stereo partly drawn) [Example 23, (1S)-3-[2-(5-hydroxy-2-adamantyl)ethyl]-1,8,8-trimethyl-3-azabicyclo [3.2.1] octane]	Suppression rate (mg/kg, p.o) ([1]; 10 mg/kg p.o.): 69 % (10)
0.67	COC12CC3CC(C1)C(CCN1CC4CC[C@](C)(C1)C4(C)C)C(C3)C2 (stereo partly drawn) [Example 24, (1S)-3-[2-(5-methoxy-2-adamantyl)ethyl]-1,8,8-trimethyl-3-azabicyclo [3.2.1] octane]	Suppression rate (mg/kg, p.o) ([1]; 10 mg/kg p.o.): 78 % (10)
0.58	CC1(C)C2CC[C@]1(C)CN(CCC1C3CC4CC1CC(Cl)(C4)C3)C2 (stereo partly drawn) [Example 25, (1S)-3-[2-(5-chloro-2-adamantyl)ethyl]-1,8,8-trimethyl-3-azabicyclo [3.2.1] octane]	Suppression rate (mg/kg, p.o) ([1]; 30 mg/kg p.o.): 43 % (30)
1.6	CC1(C)C2CC[C@]1(C)CN(CCC1C3CC4CC(C3)C(O)C1C4)C2 (stereo partly drawn) [Example 27, (1S)-3-[2-(4-hydroxy-2-adamantyl)ethyl]-1,8,8-trimethyl-3-azabicyclo [3.2.1] octane]	
2.22	CC1(C)C2CC[C@@]1(C)CN(CCc1cccc3ccccc13)C2 [Example 45, (1R)-3-[2-(1-naphthyl)ethyl]-1,8,8-trimethyl-3-azabicyclo [3.2.1] octane]	
8.57	CC1(C)C2CC[C@@]1(C)CN(CCc1ccc3ccccc3c1)C2 [Example 46, (1R)-3-[2-(2-naphthyl)ethyl]-1,8,8-trimethyl-3-azabicyclo [3.2.1] octane]	Suppression (mg/kg, i.p.) ([1]; 10 mg/kg i.p.): 45 % (10)
9	CC1(C)[C@H]2CC[C@]1(C)CN(CCc1cccc3ccccc13)C2 [Example 49, (1S)-3-[2-(1-naphtyl)ethyl]-1,8,8-trimethyl-3-azabicyclo-[3.2.1] octane]	
28.3	CC1(C)C2CC[C@]1(C)CN(CCc1ccc3ccccc3c1)C2 [Example 50, (1S)-3-[2-(2-naphthyl)ethyl]-1,8,8-trimethyl-3-azabicyclo [3.2.1] octane]	Suppression (mg/kg, i.p.) ([1]; 1 mg/kg i.p.): 50 % (1)
